Source: BindingDB's records for doi:10.1021/acs.jmedchem.7b01449 (University of Antwerp, 2018)

Experiments:
[1] = Inhibition of RIPK1 in mouse L929sA cells transfected with human Fas assessed as inhibition in TNF-induced necroptosis pretreated for 24 hrs followed by TNF and zVAD.fmk addition measured after 3 hrs by Hoechst 33342/propidium iodide staining-based assay
[2] = Inhibition of RIPK1 in mouse L929sA cells transfected with human Fas assessed as inhibition in TNF-induced necroptosis pretreated for 0.5 hrs followed by TNF and zVAD.fmk addition measured after 3 hrs by Hoechst 33342/propidium iodide staining-based assay
[3] = molecular target: T1, Receptor-interacting serine/threonine-protein kinase 1 (Mus musculus, UniProt Q60855); test: (§1) Inhibition of RIPK1 in mouse L929sA cells transfected with human Fas assessed as inhibition in TNF-induced necroptosis pretreated for 24 hrs followed by TNF and zVAD.fmk addition measured after 3 hrs by Hoechst 33342/propidium iodide staining-based assay
T1 sequence (Q60855 whole entry): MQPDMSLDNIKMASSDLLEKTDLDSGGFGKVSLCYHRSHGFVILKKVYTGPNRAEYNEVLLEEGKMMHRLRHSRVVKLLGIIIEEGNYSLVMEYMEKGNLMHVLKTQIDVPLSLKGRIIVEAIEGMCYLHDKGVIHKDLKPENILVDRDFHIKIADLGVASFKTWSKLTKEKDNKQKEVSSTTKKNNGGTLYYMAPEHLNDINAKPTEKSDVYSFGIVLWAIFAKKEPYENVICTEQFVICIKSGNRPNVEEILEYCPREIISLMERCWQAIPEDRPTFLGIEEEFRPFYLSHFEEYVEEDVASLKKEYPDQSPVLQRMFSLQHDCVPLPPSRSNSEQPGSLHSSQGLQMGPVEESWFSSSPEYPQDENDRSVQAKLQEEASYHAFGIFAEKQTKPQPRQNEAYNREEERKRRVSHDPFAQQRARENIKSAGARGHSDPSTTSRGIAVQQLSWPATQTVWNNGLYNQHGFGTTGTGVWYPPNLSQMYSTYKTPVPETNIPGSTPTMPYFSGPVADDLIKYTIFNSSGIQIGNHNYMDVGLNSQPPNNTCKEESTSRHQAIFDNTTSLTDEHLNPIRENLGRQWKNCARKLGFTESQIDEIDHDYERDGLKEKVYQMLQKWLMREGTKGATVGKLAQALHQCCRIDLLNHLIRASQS

[4] = Inhibition of RIPK1 in mouse L929sA cells transfected with human Fas assessed as inhibition in TNF-induced necroptosis pretreated for 24 hrs followed by TNF and zVAD.fmk addition measured after 3 hrs by Hoechst 33342/propidium iodide staining-based assay; remark: listed apart in the source
[5] = Inhibition of RIPK1 in mouse L929sA cells transfected with human Fas assessed as inhibition in TNF-induced necroptosis pretreated for 0.5 hrs followed by TNF and zVAD.fmk addition measured after 3 hrs by Hoechst 33342/propidium iodide staining-based assay; remark: listed apart in the source
[6] = molecular target: T1, Receptor-interacting serine/threonine-protein kinase 1; test: ChEBML_1697666
Description: as §1

| Structure (SMILES) | IC50 [1] [µM] | IC50 [2] [µM] | other results |
| --- | --- | --- | --- |
| Cc1cc(Nc2nc(Sc3ccc(NC(=O)C4CC4)cc3)nc(N3CCN(C)CC3)n2)n[nH]1 | 1.14 | > 3 |  |
| Cc1[nH]nc(Nc2cc(N3CCN(C)CC3)nc(Nc3ccc(NC(=O)C4CC4)cc3)n2)c1C | > 3 | > 3 |  |
| Cc1[nH]nc(Nc2nc(Sc3ccc(NC(=O)C4CCCCC4)cc3)nc(N3CCCCC3)n2)c1C |  |  | IC50 [3]: > 3 µM |
| Cc1[nH]nc(Nc2cc(N3CCN(C)CC3)nc(Sc3ccc(NC(=O)C4CCCCC4)cc3)n2)c1C | > 3 | > 3 |  |
| Cc1[nH]nc(Nc2nc(Sc3ccc(NC(=O)C4CCCCC4)cc3)nc(N3CCOCC3)n2)c1C |  |  | IC50 [4]: > 3 µM |
| Cc1[nH]nc(Nc2cc(N3CCCCC3)nc(Nc3ccc(NC(=O)C4CC4)cc3)n2)c1C |  |  | IC50 [3]: > 3 µM |
| Cc1[nH]nc(Nc2cc(N3CCN(C)CC3)nc(Nc3ccc(NC(=O)C4CCCCC4)cc3)n2)c1C |  |  | IC50 [4]: > 3 µM |
| Cc1[nH]nc(Nc2nc(Sc3ccc(NC(=O)C4CCCCC4)cc3)nc(N3CCN(C)CC3)n2)c1C |  |  | IC50 [3]: > 3 µM |
| Cc1cc(Nc2nc(Sc3ccc(NC(=O)C4CC4)cc3)nc(N3CCCCC3)n2)n[nH]1 | > 3 | > 3 |  |
| Cc1cc(Nc2cc(N3CCOCC3)nc(Sc3ccc(NC(=O)C4CC4)cc3)n2)n[nH]1 | 0.81 | 0.39 |  |
| Cc1cc(Nc2nc(Nc3ccc(NC(=O)C4CCCCC4)cc3)nc(N3CCCCC3)n2)n[nH]1 | > 3 | > 3 |  |
| Cc1cc(Nc2nc(Nc3ccc(NC(=O)C4CCCCC4)cc3)nc(N3CCOCC3)n2)n[nH]1 |  | > 3 | IC50 [4]: > 3 µM |
| Cc1cc(Nc2nc(Nc3ccc(NC(=O)C4CCCCC4)cc3)nc(N3CCN(C)CC3)n2)n[nH]1 | > 3 |  |  |
| Cc1cc(Nc2cc(N3CCOCC3)nc(Sc3ccc(NC(=O)C4CCCCC4)cc3)n2)n[nH]1 |  | 0.38 | IC50 [4]: 0.36 µM |
| Cc1[nH]nc(Nc2cc(N3CCOCC3)nc(Sc3ccc(NC(=O)C4CCCCC4)cc3)n2)c1C |  | > 3 | IC50 [4]: > 3 µM |
| Cc1[nH]nc(Nc2cc(N3CCOCC3)nc(Nc3ccc(NC(=O)C4CCCCC4)cc3)n2)c1C | > 3 | > 3 |  |
| Cc1cc(Nc2cc(N3CCCCC3)nc(Sc3ccc(NC(=O)C4CCCCC4)cc3)n2)n[nH]1 | 5.04 | 1.75 |  |
| Cc1[nH]nc(Nc2nc(Nc3ccc(NC(=O)C4CC4)cc3)nc(N3CCCCC3)n2)c1C |  | > 3 | IC50 [4]: > 3 µM |
| Cc1[nH]nc(Nc2nc(Nc3ccc(NC(=O)C4CCCCC4)cc3)nc(N3CCCCC3)n2)c1C |  |  | IC50 [3]: > 3 µM |
| Cc1cc(Nc2cc(N3CCN(C)CC3)nc(Nc3ccc(NC(=O)C4CCCCC4)cc3)n2)n[nH]1 | 1.75 | 0.91 |  |
| Cc1cc(Nc2nc(Sc3ccc(NC(=O)C4CC4)cc3)nc(N3CCOCC3)n2)n[nH]1 | 1.45 |  | IC50 [5]: 0.7 µM |
| Cc1cc(Nc2nc(Nc3ccc(NC(=O)C4CC4)cc3)nc(N3CCN(C)CC3)n2)n[nH]1 | > 3 | > 3 |  |

| Structure (SMILES) | IC50 [1] [µM] | IC50 [2] [µM] | other results |
| --- | --- | --- | --- |
| Cc1cc(Nc2nc(Sc3ccc(NC(=O)C4CCCCC4)cc3)nc(N3CCCCC3)n2)n[nH]1 | > 3 | > 3 |  |
| Cc1cc(Nc2nc(Nc3ccc(NC(=O)C4CC4)cc3)nc(N3CCCCC3)n2)n[nH]1 |  |  | IC50 [6]: > 3 µM |
| Cc1[nH]nc(Nc2nc(Nc3ccc(NC(=O)C4CCCCC4)cc3)nc(N3CCOCC3)n2)c1C |  |  | IC50 [3]: > 3 µM |
| CCN1CCN(c2cc(Nc3n[nH]c(C)c3C)nc(Sc3ccc(NC(=O)C4CC4)cc3)n2)CC1 | > 3 | > 3 |  |
| Cc1[nH]nc(Nc2nc(Sc3ccc(NC(=O)C4CC4)cc3)nc(N3CCOCC3)n2)c1C | > 3 |  |  |
| Cc1[nH]nc(Nc2nc(Sc3ccc(NC(=O)C4CC4)cc3)nc(N3CCN(C)CC3)n2)c1C | > 3 |  |  |
| Cc1cc(Nc2cc(N3CCOCC3)nc(Nc3ccc(NC(=O)C4CCCCC4)cc3)n2)n[nH]1 | 1.5 | 0.64 |  |
| Cc1cc(Nc2cc(N3CCN(C)CC3)nc(Sc3ccc(NC(=O)C4CCCCC4)cc3)n2)n[nH]1 |  |  | IC50 [3]: > 3 µM |
| Cc1cc(Nc2cc(N3CCN(C)CC3)nc(Nc3ccc(NC(=O)C4CC4)cc3)n2)n[nH]1 | 0.64 |  | IC50 [5]: 1.04 µM |
| Cc1cc(Nc2nc(Sc3ccc(NC(=O)C4CCCCC4)cc3)nc(N3CCOCC3)n2)n[nH]1 |  | > 3 | IC50 [4]: 1.63 µM |
| Cc1[nH]nc(Nc2cc(N3CCOCC3)nc(Nc3ccc(NC(=O)C4CC4)cc3)n2)c1C | > 3 | > 3 |  |
| Cc1[nH]nc(Nc2nc(Sc3ccc(NC(=O)C4CC4)cc3)nc(N3CCCCC3)n2)c1C | > 3 |  |  |
| Cc1[nH]nc(Nc2nc(Nc3ccc(NC(=O)C4CC4)cc3)nc(N3CCOCC3)n2)c1C |  | > 3 | IC50 [4]: > 3 µM |
| Cc1cc(Nc2cc(N3CCCCC3)nc(Nc3ccc(NC(=O)C4CC4)cc3)n2)n[nH]1 | 0.68 | 0.53 |  |
| Cc1[nH]nc(Nc2nc(Nc3ccc(NC(=O)C4CCCCC4)cc3)nc(N3CCN(C)CC3)n2)c1C |  |  | IC50 [3]: > 3 µM |
| Cc1[nH]nc(Nc2cc(N3CCCCC3)nc(Nc3ccc(NC(=O)C4CCCCC4)cc3)n2)c1C |  | > 3 | IC50 [4]: > 3 µM |
| Cc1[nH]nc(Nc2cc(N3CCCCC3)nc(Sc3ccc(NC(=O)C4CCCCC4)cc3)n2)c1C | > 3 |  |  |
| Cc1cc(Nc2nc(Nc3ccc(NC(=O)C4CC4)cc3)nc(N3CCOCC3)n2)n[nH]1 | 2.64 |  | IC50 [5]: 1.06 µM |
| Cc1cc(Nc2cc(N3CCCCC3)nc(Nc3ccc(NC(=O)C4CCCCC4)cc3)n2)n[nH]1 | 1.94 |  | IC50 [6]: > 3 µM |
| Cc1[nH]nc(Nc2nc(Nc3ccc(NC(=O)C4CC4)cc3)nc(N3CCN(C)CC3)n2)c1C |  | > 3 | IC50 [4]: > 3 µM |
| Cc1cc(Nc2nc(Sc3ccc(NC(=O)C4CCCCC4)cc3)nc(N3CCN(C)CC3)n2)n[nH]1 |  | > 3 | IC50 [4]: > 3 µM |
| Cc1cc(Nc2cc(N3CCCCC3)nc(Sc3ccc(NC(=O)C4CC4)cc3)n2)n[nH]1 | 1.74 |  |  |
